Experimental data: patent US20060216302A1, “Immunological markers” (priority 2003, published 2006)
Ends that are not written are not given here.

Assays:
Lewis rats = assay: Antigenicity and cross-reactivity in rats inoculated with marker-KLH conjugates, serum ELISA (Example 7); assay type: in vivo, rat; conditions: for Candidate Marker Antibody Reactivity RBM1 / Candidate Marker Antibody Reactivity RBM2 / Candidate Marker Antibody Reactivity RBM4 / Candidate Marker Antibody Reactivity RBM5 / Candidate Marker Antibody Reactivity RBM6 / Candidate Marker Antibody Reactivity RBM7: Table 3; for Candidate Marker Antibody Reactivity RBM1: serum (1/100) of Lewis rats inoculated s.c. with 1.0 mg marker-KLH conjugate in Freund's incomplete adjuvant, day 14-21, ELISA wells coated with RBM1; for Candidate Marker Antibody Reactivity RBM2 / Candidate Marker Antibody Reactivity RBM4 / Candidate Marker Antibody Reactivity RBM5 / Candidate Marker Antibody Reactivity RBM6 / Candidate Marker Antibody Reactivity RBM7: serum (1/100) of Lewis rats inoculated with marker-KLH conjugate; for Candidate Marker Antibody Reactivity RBM2: ELISA wells coated with RBM2; for Candidate Marker Antibody Reactivity RBM4: ELISA wells coated with RBM4; for Candidate Marker Antibody Reactivity RBM5: ELISA wells coated with RBM5; for Candidate Marker Antibody Reactivity RBM6: ELISA wells coated with RBM6; for Candidate Marker Antibody Reactivity RBM7: ELISA wells coated with RBM7; for Relative Absorbance ±SE at 405 nm, Candidate Marker RBM1 / Relative Absorbance ±SE at 405 nm, Candidate Marker RBM4 / Relative Absorbance ±SE at 405 nm, Candidate Marker RBM5 / Relative Absorbance ±SE at 405 nm, Candidate Marker RBM6: Table 4, N = 3, rats inoculated with marker-KLH conjugate, ** P < .01; for Relative Absorbance ±SE at 405 nm, Candidate Marker RBM1: ELISA against RBM1; for Relative Absorbance ±SE at 405 nm, Candidate Marker RBM4: ELISA against RBM4; for Relative Absorbance ±SE at 405 nm, Candidate Marker RBM5: ELISA against RBM5; for Relative Absorbance ±SE at 405 nm, Candidate Marker RBM6: ELISA against RBM6; for Cross-reactivity among the candidate markers: text summary of Table 3, rat sera after marker-KLH inoculation
human sera = assay: ELISA cross-reactivity of candidate markers with human sera (Example 9); conditions: human serum diluted 1/1000, goat anti-human-HRP, non-specific binding subtracted
Procedure: Four samples of human sera were obtained with appropriate consent. 20 The frozen samples of cell-free sera were thawed and diluted to 1/1000 in phosphate buffered saline at pH 7.0. Aliquots (100 ul) of these diluted antisera were added to ELISA plates pre-adsorbed with the biomarkers as described in Table 1. A goat anti-human-HRP secondary antibody was used to quantitate the amount of antibody bound to the various marker peptides. Non-specific binding (determined by plating antisera onto PVA coated wells) was subtracted from the readings of the individual marker wells.

rats = assay: Antigenicity in rats inoculated with free marker peptides, serum ELISA (Example 8); assay type: in vivo, rat; conditions: Table 5; for Candidate Marker Antibody Reactivity RBM1: rats inoculated with 1 mg free peptide (not KLH-conjugated) in Freund's incomplete adjuvant, ELISA against RBM1; for Candidate Marker Antibody Reactivity RBM2 / Candidate Marker Antibody Reactivity RBM3 / Candidate Marker Antibody Reactivity RBM4 / Candidate Marker Antibody Reactivity RBM5 / Candidate Marker Antibody Reactivity RBM6 / Candidate Marker Antibody Reactivity RBM7: rats inoculated with free peptide; for Candidate Marker Antibody Reactivity RBM2: ELISA against RBM2; for Candidate Marker Antibody Reactivity RBM3: ELISA against RBM3; for Candidate Marker Antibody Reactivity RBM4: ELISA against RBM4; for Candidate Marker Antibody Reactivity RBM5: ELISA against RBM5; for Candidate Marker Antibody Reactivity RBM6: ELISA against RBM6; for Candidate Marker Antibody Reactivity RBM7: ELISA against RBM7; for Antigenicity (measurable antibody response) of free marker peptide / Interference and cross-reaction with other marker candidates: rats; for Antigenicity (measurable antibody response) of free marker peptide: free peptide not conjugated to KLH; for Interference and cross-reaction with other marker candidates: free peptide
[1] = system: polyclonal sera against a range of infectious agents and hormones; assay: ELISA cross-reactivity screen, whole panel of antisera; assay type: binding; conditions: whole panel of 12 antisera

| Substance | Candidate Marker Antibody Reactivity RBM1 (Lewis rats) | Candidate Marker Antibody Reactivity RBM2 (Lewis rats) | Candidate Marker Antibody Reactivity RBM4 (Lewis rats) | Candidate Marker Antibody Reactivity RBM5 (Lewis rats) | Relative Absorbance ±SE at 405 nm, Candidate Marker RBM1 (Lewis rats) | Relative Absorbance ±SE at 405 nm, Candidate Marker RBM4 (Lewis rats) | Relative Absorbance ±SE at 405 nm, Candidate Marker RBM5 (Lewis rats) | Relative Absorbance ±SE at 405 nm, Candidate Marker RBM6 (Lewis rats) | Candidate Marker Antibody Reactivity, Serum Sample 1 (human sera) | Candidate Marker Antibody Reactivity, Serum Sample 2 (human sera) | Candidate Marker Antibody Reactivity, Serum Sample 3 (human sera) | Candidate Marker Antibody Reactivity, Serum Sample 4 (human sera) | Candidate Marker Antibody Reactivity RBM1 (rats) | Candidate Marker Antibody Reactivity RBM2 (rats) | Candidate Marker Antibody Reactivity RBM3 (rats) | Candidate Marker Antibody Reactivity RBM4 (rats) | Candidate Marker Antibody Reactivity RBM5 (rats) | Candidate Marker Antibody Reactivity RBM6 (rats) | Candidate Marker Antibody Reactivity RBM7 (rats) | Antigenicity (measurable antibody response) of free marker peptide (rats) | other results |
| --- | --- | --- | --- | --- | --- | --- | --- | --- | --- | --- | --- | --- | --- | --- | --- | --- | --- | --- | --- | --- | --- |
| EGVYVPV [RBM5, peptide derived from the 5→3 reading of the cDNA encoding angiotensin II; T3 prints Glu-Gly-Val-Tyr-Val-His-Pro-Val] | −.018 | .068 | −.231 | .101 | .57 ± .25 | .15 ± .07 | 1.5 ± .44** | .50 ± .02 | .22 | .21 | −.02 | −.01 |  |  |  |  |  |  |  |  | Candidate Marker Antibody Reactivity RBM6 (Lewis rats): .006; Candidate Marker Antibody Reactivity RBM7 (Lewis rats): −.058; Cross-reactivity among the candidate markers (Lewis rats): cross-react weakly, but consistently |
| HRNYFHRNYF [RBM2] | .034 | .219 | −.037 | .041 |  |  |  |  | .26 | .05 | .27 | −.01 | −.02 | 3.34 | −.07 | −.01 | .05 | −.23 | −.05 | sufficiently antigenic to produce a measurable and consistent antibody response | Candidate Marker Antibody Reactivity RBM6 (Lewis rats): −.006; Candidate Marker Antibody Reactivity RBM7 (Lewis rats): .002; Cross-reactivity among the candidate markers (Lewis rats): cross-react weakly, but consistently; Interference and cross-reaction with other marker candidates (rats): did not interfere with each other's immune responses nor cross-react with other marker candidates |
| HWRWRMRMHWRWRMRM [RBM6] |  |  |  |  | .12 ± .03 | .02 ± .04 | −07 ± .15 | .84 ± .13** | .22 | .24 | −.09 | −.03 | −.07 | .39 | .02 | −.06 | .19 | −.01 | .12 | failed to produce measurable immunity |  |
| RLAHMYVGKT [RBM4, antisense peptide from angiotensin II complementary DNA, 3→5 direction; KLH conjugate for inoculation] | −.009 | .020 | .079 | .003 | .21 ± .06 | 2.26 ± .40** | .24 ± .23 | .32 ± .07 | .08 | .20 | −.16 | −.02 |  |  |  |  |  |  |  |  | Recognition by any antiserum tested [1]: did not cross-react; Candidate Marker Antibody Reactivity RBM6 (Lewis rats): −.035; Candidate Marker Antibody Reactivity RBM7 (Lewis rats): −.030 |
| WFYMYFWFYMYF [RBM3] |  |  |  |  |  |  |  |  | .07 | .05 | −.07 | −.01 |  |  |  |  |  |  |  |  |  |
| WPHDMCWP [RBM7] |  |  |  |  |  |  |  |  | −.11 | .00 | .04 | −.02 | −.10 | .22 | −.06 | −.12 | .06 | −.10 | .63 | sufficiently antigenic to produce a measurable and consistent antibody response | Interference and cross-reaction with other marker candidates (rats): did not interfere with each other's immune responses nor cross-react with other marker candidates |
| YFMYRRYFMYRR [RBM1] |  |  |  |  | .55 ± .15** | −.11 ± .14 | .11 ± .05 | .05 ± .07 | .16 | .01 | .08 | .01 | .00 | .20 | −.05 | −.04 | .1 | −.10 | .14 | failed to produce measurable immunity |  |
